From US10765654B2, “Methods and compounds for treating cancer” (University of Vermont and State Agricultural College, priority 2011, dated 2020)

Experiments:
GBM8 GSCs = assay: Growth dynamics, unbiased trypan blue exclusion based cytometry; assay type: cell-based, human; conditions: GTA; GBM8 cells grown in DM
Protocol: Growth dynamics were assessed using unbiased trypan blue exclusion based cytometry. Cells were plated (at 10,000 cells per well of a 24-well plate) directly in the absence or presence of 0.25% GTA. After 1, 3, and 5 days of treatment, cells were typsinized, collected via centrifugation, and counted according to the manufacturer's instructions (Countess Automated Cell Counter; Invitrogen Life Technologies; Carlsbad, Calif.).
Growth dynamics was determined as described in prior examples herein.

OG33 cells = assay: Immunocytochemistry after 5 days in differentiation medium with or without GTA; assay type: cell-based, human; conditions: 0.25% GTA, 5 days in DM
Protocol: (§1) Immunocytochemistry was performed as described (Perez-Martinez & Jaworski (2005) J Neurosci 25:4917-29). Briefly, OG33 and OG35 cells were plated into differentiaion medium (DMEM, 10% FBS) in the absence or presence of 0.25% GAT and fixed with 2% paraformaldehyde after 5 days. Antibodies: rabbit anti-human ASPA (1500×; GTX13389; GeneTex, Irvine, Calif.), Rabbit anti-mouse ASPA (2,000× for western blot) (Madhavarao et al., 2004 Comp Neurol 472:318-29), rabbit anti-mouse AceCS1 (15,000× western blot; 1,500× immunocytochemistry) (Ariyannur et al. 2010 J Comp Neurol 518:2952-77), rabbit anti-mouse 2′,3′-cyclic nucleotide 3′-phosphodiesterase (CNPase; 500×sc-30158; Santa Cruz Biotechnology, Santa Cruz, Calif.). Cy3- (500×) conjugated secondary antibodies were obtained from Jackson ImmunoResearch (West Grove, Pa.). Immunocytochemistry for Histone 3/Tubulin/poly(ADP-ribose) polymerase (PARP) was performed using the PathScan Multiplex IF kit per manufacturer's instructions (Cell Signaling Technology, Danvers, Mass.).

OG35 cells = assay: as above; assay type: cell-based, human; conditions: 0.25% GTA, 5 days in DM
Protocol: as §1

[1] = test system: OG35 oligodendroglioma GSCs; assay: Orthotopic graft in athymic mice, survival and bioluminescent imaging; assay type: in vivo; conditions: OG35 engrafted mice
Protocol: Cells (2,500 cells in 4 μl) were injected into the right striatum (1 mm anterior, 1.5 mm lateral to bregma, 3.5 mm deep) of adult athymic mice (8-week-old, 25-28 g). […]
For in vivo imaging, mice were injected i.p. with 150 mg/kg D-luciferin potassium salt 5 minutes prior to imaging under 1.5% inhaled isoflurane. Peak efflux was determined from an average of 15 bioluminescent acquisitions, with 1 min inter-acquisition intervals, using the auto-exposure setting. Total photon efflux was determined by drawing regions of interest over the emitted region and setting thresholds for each mouse to maximize the number of pixels encircled using Living Image acquisition and analysis software (Version 3.0.3.5, Caliper Life Sciences, Hopkinton, Mass.). […]
Tumor bioluminescence (rate of flux change over time) and tumor volume were compared using a Mann-Whitney test. Survival was analyzed using Kaplan-Meier curves [Kaplan, EL and P Meier. (1958) J Am Stat Assoc 53:457-481] and comparisons between groups were analyzed with a log-rank test [Peto, R and J Peto. […]

OG35 GSCs = assay: Orthotopic graft in athymic mice, comparison of priming, concurrent and salvage regimens; assay type: in vivo; conditions: OG35 GSC engrafted mice; priming with GTA two days prior to TMZ treatment
Protocol: Cells (2,500 cells in 4 μl) were injected into the right striatum (1 mm anterior, 1.5 mm lateral to bregma, 3.5 mm deep) of adult athymic mice (8-week-old, 25-28 g). GTA (5.8 g/kg plus 10% v/v Ora-Sweet SF® (Paddock Laboratories, Minneapolis, Minn.) was administered intragastrically daily starting on the third post-operative day. TMZ (20 mg/kg) was administered intragastrically in an oral suspension vehicle containing 2.5 mg/ml Povidone K30, 0.013% citric acid, 50% Ora-Plus® (Paddock Laboratories, Minneapolis, Minn.), 50% Ora-Sweet SF® (Paddock Laboratories, Minneapolis, Minn.) on days 5, 7, 9, 11, and 13. Mice receiving the combined GTA/TMZ therapy received the TMZ in the morning (˜7-8 AM) and GTA in the evening (˜6-7 PM).
Orthotopic grafting was performed as described above in Example 6. In addition to the treatments described above, the following treatments were tested: 1) concurrent (GTA and TMZ on days 5, 7, 9, 11, 13, with GTA alone on days 6, 8, 10, 12 and continuous GTA afterwards), and 2) salvage (GTA administered daily after single course of TMZ on days 5, 7, 9, 11, and 13).

[2] = acetate supplementation in children with Canavan Disease; cited from earlier work

## CC(=O)OCC(COC(C)=O)OC(C)=O [GTA, glyceryltriacetate]
GBM8 GSCs
  Growth dynamics: reduced growth dynamics
OG33 cells
  Apoptosis (cleaved PARP, Asp214): no cleaved PARP
  Proliferation (phospho-histone H3 [Ser 10]): decreased phospho-histone H3
OG35 cells; OG35
  Apoptosis (cleaved PARP, Asp214): no cleaved PARP
  Nuclear expression of ASPA: increase the nuclear expression of ASPA
  Proliferation (phospho-histone H3 [Ser 10]): decreased phospho-histone H3
OG35 cells; primarily in OG35 cells
  GSC differentiation (expression of CNPase, a marker of mature oligodendrocytes): increased expression of CNPase
[1]; GTA alone 5.8 g/kg intragastrically daily
  Survival: did not significantly increase survival
[1]; GTA with TMZ, bioluminescent imaging
  Time to tumor regrowth after termination of TMZ treatment: significantly delayed
OG35 GSCs
  Survival versus TMZ alone: increased survival over TMZ alone
[2]
  Adverse effects: without any adverse effects
